Assay: Caco-2 membrane permeability assay
Type: in vitro ADME
Settings: human; Caco-2, apical pH 6.5, basolateral pH 7.4
Method: The membrane permeability of the molecule of the present disclosure was evaluated. Samples were analyzed by LC-MS to estimate the apparent permeability coefficient (Papp) of the compounds across Caco-2 cell monolayers, with the apical chamber at pH 6.5 and the basolateral chamber at pH 7.4. Active efflux transport of compounds can be blocked using inhibitors of P-gp efflux transporter, BCRP, and MRP2 (50 μM quinidine, 30 μM benzbromarone, and 20 μM sulfasalazine). The data were used to determine apparent permeability (Papp).
[formula] • where VA is the volume of the receptor pore (in mL), Area is the surface area of the membrane (0.143 cm^2 for Transwell-96 well permeable scaffolds), and time is the total transport time (in seconds).

Q: Which Papp A→B does the source give for `CCc1c(N2CCN(C(=O)c3ncnc(C)c3O)CC2)c(=O)n2nc(C3=CCOCC3)nc2n1CC(=O)Nc1ccc(C(F)(F)F)c2ccoc12` [Compound H22] here?
A: 3.2 ×10⁻⁶ cm/s

Q: What about the Papp B→A of the same molecule?
A: 21 ×10⁻⁶ cm/s
